US20260273072A1, “NOVEL PLK1 DEGRADATION INDUCING COMPOUND” (UPPTHERA, INC., priority 2023, published 2026)

Assays:
Format in all cases: cell-based
[1] = tested on: NCI-H69 cell line; assay: Cell viability assay for NCI-H69 cell line (EZ-Cytox); details: Homo sapiens, NCI-H69, 120 h; H69 cells, 5 days, 3000 nM to 0.46 nM
Procedure, shortened: (§1)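 IC50 values are binned (A: <30 nM, B: <50 nM, C: <100 nM, D: <200 nM, E: <400 nM) from EZ-Cytox read-outs. Cells were exposed to compound for 5 days, then shaken 3 min and absorbance taken at […].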

[2] = target: T1, PLK1 (Homo sapiens, UniProt P53350); assay: Luciferase assay for PLK1 in HeLa LgBit (Plk1-HiBit KI) cell line; details: 300 nM compound, luminescence after 9 hours
T1 construct: endogenous in cells; host or cells: HeLa LgBit (Plk1-HiBit KI): HeLa stably expressing LgBit, with a CRISPR/Cas9 knock-in of HiBit at the endogenous PLK1 locus
T1 sequence (P53350 whole entry): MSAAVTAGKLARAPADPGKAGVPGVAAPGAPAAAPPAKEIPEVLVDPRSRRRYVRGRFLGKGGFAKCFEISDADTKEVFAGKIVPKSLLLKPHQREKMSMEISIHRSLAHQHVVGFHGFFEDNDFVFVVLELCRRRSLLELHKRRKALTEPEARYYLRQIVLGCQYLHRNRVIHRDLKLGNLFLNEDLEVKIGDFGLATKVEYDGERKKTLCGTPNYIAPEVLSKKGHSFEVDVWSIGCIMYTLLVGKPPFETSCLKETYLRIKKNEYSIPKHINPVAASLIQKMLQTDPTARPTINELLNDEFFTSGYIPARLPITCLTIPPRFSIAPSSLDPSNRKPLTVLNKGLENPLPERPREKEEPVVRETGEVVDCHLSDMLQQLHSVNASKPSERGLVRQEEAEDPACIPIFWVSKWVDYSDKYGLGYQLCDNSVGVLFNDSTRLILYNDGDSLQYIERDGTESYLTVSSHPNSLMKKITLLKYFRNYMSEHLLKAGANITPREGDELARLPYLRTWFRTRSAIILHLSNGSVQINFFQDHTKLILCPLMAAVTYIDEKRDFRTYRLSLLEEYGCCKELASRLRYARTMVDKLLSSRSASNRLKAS
Procedure, shortened: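 Compounds (300 nM) were added with Endurazine to thymidine-synchronised cells (2 mM, 24 h block, then release and 18 h culture), and luminescence at 470-480 nm was followed live. Cells: HeLa stably expressing LgBit, HiBit knocked into native PLK1 C-terminus. Value: luminescence ratio versus DMSO control.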

[3] = tested on: MRC-5 cell line; assay: Cell viability assay for MRC-5 cell line (EZ-Cytox); details: Homo sapiens, MRC5, 120 h; MRC-5 normal cell line, 5 days, 10000 nM to 1.52 nM; read-out: Activity: IC50 value, cell viability, MRC-5 cell line (Exemplary Compounds)
Method: 4. Cell Viability Assay for MRC-5 Cell Line
(1) Culture of MRC-5 Cell Line
The MRC-5 cell line was purchased from KCLB. Passage of cultured cells was maintained within P15.
(2) Treatment of Compounds of the Present Invention
Then, it was cultured in 37° C. CO2 incubator (Thermo Fisher Scientific) for 5 days.
(3) Cytotoxicity Experiment
CO2 incubator for 4 hours.

[4] = tested on: NCI-H526 cell line; assay: Cell viability assay for NCI-H526 cell line (EZ-Cytox); details: Homo sapiens, NCI-H526, 120 h; H526 cells, 5 days, 3000 nM to 0.46 nM
Procedure, shortened: as §1

Structure (SMILES): COc1cc(C(=O)NN2CCC(CCN3CCN(c4cc(OC)c(NC5CCC(=O)NC5=O)cc4F)CC3)CC2)ncc1Nc1ncc2c(n1)N(C(C)C)CC(F)(F)C(=O)N2C (stereo not drawn) [Compound 46, 5-((7,7-difluoro-9-isopropyl-5-methyl-6-oxo-8H-pyrimido[4,5-b][1,4]diazepin-2-yl)amino)-N-(4-(2-(4-(4-((2,6-dioxo-3-piperidyl)amino)-2-fluoro-5-methoxy-phenyl)piperazin-1-yl)ethyl)-1-piperidyl)-4-methoxy-pyridine-2-carboxamide]
- IC50 [1]: < 100 nM
- Activity: ratio of the luminescence value of compound treatment group to DMSO treatment group [2]: ++ (++: <0.5)
- IC50 [3]: > 10000 nM
- IC50 [4]: < 50 nM

Structure (SMILES): COc1cc(C(=O)NN2CCC(CCN3CCN(c4cc(OC)c(NC5CCC(=O)NC5=O)cc4F)CC3)CC2)ncc1Nc1ncc2c(n1)N(C1CCCC1)CC(F)(F)C(=O)N2C (stereo not drawn) [Compound 47, 5-((9-cyclopentyl-7,7-difluoro-5-methyl-6-oxo-6,7,8,9-tetrahydro-5H-pyrimido[4,5-b][1,4]diazepin-2-yl)amino)-N-(4-(2-(4-(4-((2,6-dioxopiperidin-3-yl)amino)-2-fluoro-5-methoxyphenyl)piperazin-1-yl)ethyl)piperidin-1-yl)-4-methoxypicolinamide]
- IC50 [1]: < 50 nM
- Activity: ratio of the luminescence value of compound treatment group to DMSO treatment group [2]: ++ (++: <0.5)
- IC50 [3]: > 10000 nM
- IC50 [4]: < 50 nM

Structure (SMILES): COc1cc(C(=O)NC2CCN(CCN3CCN(c4cc(OC)c(NC5CCC(=O)NC5=O)cc4F)CC3)CC2)ccc1Nc1ncc2c(n1)N(C1CCCC1)CC(F)(F)C(=O)N2C (stereo not drawn) [Compound 48, 4-((9-cyclopentyl-7,7-difluoro-5-methyl-6-oxo-6,7,8,9-tetrahydro-5H-pyrimido[4,5-b][1,4]diazepin-2-yl)amino)-N-(1-(2-(4-(4-((2,6-dioxopiperidin-3-yl)amino)-2-fluoro-5-methoxyphenyl)piperazin-1-yl)ethyl)piperidin-4-yl)-3-methoxybenzamide]
- IC50 [1]: < 50 nM
- Activity: ratio of the luminescence value of compound treatment group to DMSO treatment group [2]: ++ (++: <0.5)
- IC50 [3]: > 10000 nM
- IC50 [4]: < 30 nM

Structure (SMILES): COc1cc(C(=O)NC2CCN(CCN3CCN(c4cc(OC)c(NC5CCC(=O)NC5=O)cc4F)CC3)CC2)c(F)cc1Nc1ncc2c(n1)N(C1CCCC1)CC(F)(F)C(=O)N2C (stereo not drawn) [Compound 49, 4-((9-cyclopentyl-7,7-difluoro-5-methyl-6-oxo-6,7,8,9-tetrahydro-5H-pyrimido[4,5-b][1,4]diazepin-2-yl)amino)-N-(1-(2-(4-(4-((2,6-dioxopiperidin-3-yl)amino)-2-fluoro-5-methoxyphenyl)piperazin-1-yl)ethyl)piperidin-4-yl)-2-fluoro-5-methoxybenz amide]
- IC50 [1]: < 50 nM
- Activity: ratio of the luminescence value of compound treatment group to DMSO treatment group [2]: ++ (++: <0.5)
- IC50 [3]: > 10000 nM
- IC50 [4]: < 30 nM

Structure (SMILES): COc1cc(C(=O)NC2CCN(CCC3CCN(c4cc(OC)c(NC5CCC(=O)NC5=O)cc4F)CC3)CC2)c(F)cc1Nc1ncc2c(n1)N(C(C)C)CC(F)(F)C(=O)N2C (stereo not drawn) [Compound 50, 4-((7,7-difluoro-9-isopropyl-5-methyl-6-oxo-6,7,8,9-tetrahydro-5H-pyrimido[4,5-b][1,4]diazepin-2-yl)amino)-N-(1-(2-(1-(4-((2,6-dioxopiperidin-3-yl)amino)-2-fluoro-5-methoxyphenyl)piperidin-4-yl)ethyl)piperidin-4-yl)-2-fluoro-5-methoxybenzamide]
- IC50 [1]: < 100 nM
- Activity: ratio of the luminescence value of compound treatment group to DMSO treatment group [2]: ++ (++: <0.5)
- IC50 [3]: > 10000 nM
- IC50 [4]: < 50 nM

Structure (SMILES): COc1cc(C(=O)NC2CC3(CCN(CC4CCN(c5cc(OC)c(NC6CCC(=O)NC6=O)cc5F)CC4)CC3)C2)ccc1Nc1ncc2c(n1)N(C1CCCC1)CC(F)(F)C(=O)N2C (stereo not drawn) [Compound 51, 4-((9-cyclopentyl-7,7-difluoro-5-methyl-6-oxo-6,7,8,9-tetrahydro-5H-pyrimido[4,5-b][1,4]diazepin-2-yl)amino)-N-(7-((1-(4-((2,6-dioxopiperidin-3-yl)amino)-2-fluoro-5-methoxyphenyl)piperidin-4-yl)methyl)-7-azaspiro[3.5]nonan-2-yl)-3-methoxybenzamide]
- IC50 [1]: < 30 nM
- Activity: ratio of the luminescence value of compound treatment group to DMSO treatment group [2]: +++ (+++: <0.3)
- IC50 [3]: > 10000 nM
- IC50 [4]: < 30 nM

Structure (SMILES): COc1cc(C(=O)NC2CC3(CCN(CC4CCN(c5cc(OC)c(NC6CCC(=O)NC6=O)cc5F)CC4)CC3)C2)c(F)cc1Nc1ncc2c(n1)N(C(C)C)CC(F)(F)C(=O)N2C (stereo not drawn) [Compound 52, 4-((7,7-difluoro-9-isopropyl-5-methyl-6-oxo-6,7,8,9-tetrahydro-5H-pyrimido[4,5-b][1,4]diazepin-2-yl)amino)-N-(7-((1-(4-((2,6-dioxopiperidin-3-yl)amino)-2-fluoro-5-methoxyphenyl)piperidin-4-yl)methyl)-7-azaspiro[3.5]nonan-2-yl)-2-fluoro-5-methoxybenzamide]
- IC50 [1]: < 30 nM
- Activity: ratio of the luminescence value of compound treatment group to DMSO treatment group [2]: ++ (++: <0.5)
- IC50 [3]: > 10000 nM
- IC50 [4]: < 30 nM

Structure (SMILES): COc1cc(C(=O)NC2CC3(CCN(CC4CCN(c5cc(OC)c(NC6CCC(=O)NC6=O)cc5F)CC4)CC3)C2)ncc1Nc1ncc2c(n1)N(C(C)C)CC(F)(F)C(=O)N2C (stereo not drawn) [Compound 53, 5-((7,7-difluoro-9-isopropyl-5-methyl-6-oxo-6,7,8,9-tetrahydro-5H-pyrimido[4,5-b][1,4]diazepin-2-yl)amino)-N-(7-((1-(4-((2,6-dioxopiperidin-3-yl)amino)-2-fluoro-5-methoxyphenyl)piperidin-4-yl)methyl)-7-azaspiro[3.5]nonan-2-yl)-4-methoxypicolinamide]
- IC50 [1]: < 50 nM
- Activity: ratio of the luminescence value of compound treatment group to DMSO treatment group [2]: ++ (++: <0.5)
- IC50 [3]: > 10000 nM
- IC50 [4]: < 30 nM

Structure (SMILES): COc1cc(C(=O)NN2CCC(CCN3CCN(c4ccc(NC5CCC(=O)NC5=O)c(OC)c4F)CC3)CC2)ccc1Nc1ncc2c(n1)N(C1CCCC1)CC(F)(F)C(=O)N2C (stereo not drawn) [Compound 54, 4-((9-cyclopentyl-7,7-difluoro-5-methyl-6-oxo-6,7,8,9-tetrahydro-5H-pyrimido[4,5-b][1,4]diazepin-2-yl)amino)-N-(4-(2-(4-(4-((2,6-dioxopiperidin-3-yl)amino)-2-fluoro-3-methoxyphenyl)piperazin-1-yl)ethyl)piperidin-1-yl)-3-methoxybenzamide]
- IC50 [1]: < 30 nM
- Activity: ratio of the luminescence value of compound treatment group to DMSO treatment group [2]: +++ (+++: <0.3)
- IC50 [3]: > 10000 nM
- IC50 [4]: < 30 nM

Structure (SMILES): COc1cc(C(=O)NN2CCC(CCN3CCN(c4ccc(NC5CCC(=O)NC5=O)c(F)c4OC)CC3)CC2)ccc1Nc1ncc2c(n1)N(C1CCCC1)CC(F)(F)C(=O)N2C (stereo not drawn) [Compound 55, 4-((9-cyclopentyl-7,7-difluoro-5-methyl-6-oxo-6,7,8,9-tetrahydro-5H-pyrimido[4,5-b][1,4]diazepin-2-yl)amino)-N-(4-(2-(4-(4-((2,6-dioxopiperidin-3-yl)amino)-3-fluoro-2-methoxyphenyl)piperazin-1-yl)ethyl)piperidin-1-yl)-3-methoxybenzamide]
- IC50 [1]: < 30 nM
- Activity: ratio of the luminescence value of compound treatment group to DMSO treatment group [2]: +++ (+++: <0.3)
- IC50 [3]: > 10000 nM
- IC50 [4]: < 30 nM

Structure (SMILES): COc1cc(C(=O)NN2CCC(CCN3CCN(c4cc(F)c(NC5CCC(=O)NC5=O)cc4OC)CC3)CC2)ccc1Nc1ncc2c(n1)N(C1CCCC1)CC(F)(F)C(=O)N2C (stereo not drawn) [Compound 56, 4-((9-cyclopentyl-7,7-difluoro-5-methyl-6-oxo-6,7,8,9-tetrahydro-5H-pyrimido[4,5-b][1,4]diazepin-2-yl)amino)-N-(4-(2-(4-(4-((2,6-dioxopiperidin-3-yl)amino)-5-fluoro-2-methoxyphenyl)piperazin-1-yl)ethyl)piperidin-1-yl)-3-methoxybenzamide]
- IC50 [1]: < 30 nM
- Activity: ratio of the luminescence value of compound treatment group to DMSO treatment group [2]: ++ (++: <0.5)
- IC50 [3]: > 10000 nM
- IC50 [4]: < 30 nM

Structure (SMILES): COc1cc(C(=O)NN2CCC(CCN3CCN(c4cc(F)c(NC5CCC(=O)NC5=O)cc4F)CC3)CC2)ccc1Nc1ncc2c(n1)N(C1CCCC1)CC(F)(F)C(=O)N2C (stereo not drawn) [Compound 57, 4-((9-cyclopentyl-7,7-difluoro-5-methyl-6-oxo-6,7,8,9-tetrahydro-5H-pyrimido[4,5-b][1,4]diazepin-2-yl)amino)-N-(4-(2-(4-(4-((2,6-dioxopiperidin-3-yl)amino)-2,5-difluorophenyl)piperazin-1-yl)ethyl)piperidin-1-yl)-3-methoxybenzamide]
- IC50 [1]: < 30 nM
- Activity: ratio of the luminescence value of compound treatment group to DMSO treatment group [2]: +++ (+++: <0.3)
- IC50 [3]: > 10000 nM
- IC50 [4]: < 30 nM
